In one data set the test system is allergic inflammation. Briefly: LPS-induced asthma mouse model. The data set is classed as in vivo, BABL/c mice. The protocol:
FIG. 25 Lunasin-treated mice have reduced allergic inflammation in a mouse model of asthma. In LPS-induced asthma model BABL/c mice were sensitized intranasally with 0.1 μg of LPS at day 0, 1, and 2 with (LS) or without (Ctrl) lunasin peptide at 4 mg, and then challenged with 50 μg of OVA on days 19, 20 and 21. Another group of mice (LC) was sensitized as the Ctrl group followed by challenging with OVA in the presence of lunasin at 4mg. The total cell numbers (A) and differential cell numbers of eosinophils (B) were counted from the BAL fluid. Data are presented as mean±SD from 3 mice in each group. *,P<0.05; ns not-significant p>0.05. (C) Cells from draining lympho nodes (mediastinal) were stimulated with OVA, and the levels of IL-4 production in the supernatants were evaluated using ELISA. Data are presented as mean ±SD from 3 mice in each group. ***, P<0.005; ns, not-significant, p>0.05.
In LPS-induced asthma model, BABL/c mice were sensitized intranasally with 0.1 μg of LPS at day 0, 1, and 2 with (LS) or without (Ctrl) lunasin peptide at 4 mg, and then challenged with 50 ug of OVA on days 19, 20, and 21. […] The total cell numbers (A) and differential cell numbers of eosinophils (B) were counted from the BAL fluid. […] (C) Cells from draining lympho nodes (mediastinal) were stimulated with OVA, and the levels of IL-4 production in the supernatants were evaluated using ELISA. […]

For data set [1] the following is noted: boiling; cited from earlier work.
For data set [2], the system named is peripheral blood mononuclear cells (PBMCs); CD3 negative and CD56 positive NK cell populations. Briefly: Intracellular cytokine staining of IFNγ in stimulated PBMCs of normal controls (flow cytometry). The data set is classed as cell-based, human. To be noted: 1 day. The protocol:
FIG. 1 IFNγ production by primary NK cells following stimulation. Human primary NK cells were isolated from peripheral blood mononuclear cells (PBMCs) of normal controls using positive selection with CD56 magnetic beads (Miltenyi Biotec Auburn. CA). […] At the last 6 hrs of stimulation, golgistop (monensin) was added to block the secretion of IFNγ. Stimulated PBMCs were surface stained with FITC-conjugated CD3 and PE-congugated CD56 monoclonal antibodies (BD), washed, fixed, and permeabilized. After washing, cells were incubated with APC-conjugated anti IFNγ monoclonal antibody. Expression of IFNγ was evaluated on 5000 events of gated CD3 negative and CD56 positive NK cell populations. The % of NK populations producing IFNγ is labeled at the upper right quadrant of the dot plot. (B) IFNγ production in the supernatants. […] The cell pellets from (B) were analyzed for gene expression using qPCR with Taqman Assay primers. […]
Following 1 day of stimulation, distinct cell populations that respond to stimulation were evaluated using intracellular cytokine staining for IFNγ production. […]
Aliquots of PBMCs isolated from healthy volunteer donors were cryopreserved in liquid nitrogen for the following assays. […] Expression of IFNγ was evaluated on 5000 events of gated CD3 negative and CD56 positive NK cell populations. […] The cell pellets were analyzed for gene expression using qPCR with Taqman Assay primers. […]
Background: Flow cytometry measures light scatter and fluorescence of single cells or particles in a stream.

Data set [3] concerns acetylation of histone H3 and H4. As to conditions: extracted from autoclaved soybean products or blood of rats fed LES; cited from earlier work.

This is an account of results in patent US9173923B2, “Modulating innate immune cell activity by lunasin and selected cytokines” (Indiana University Research & Technology Corporation, priority 2011, dated 2015).

For lunasin, the “production of IL-4” value in the data set with allergic inflammation (draining lymph node cells stimulated with OVA, ELISA) is listed as “reduced production of IL-4”. Also, the “cell counts in the bronchoalveolar lavage (BAL) fluid” value in the data set on allergic inflammation (lunasin 4 mg intranasal) is reported as “lower cell counts”. The heat stability result in data set [1] is given as “heat-stable”. For the same substance, the “IFNγ intracellular staining by cell population (NK, CD4 and CD8 T)” value in data set [2] is “NK but not CD4 or CD8 T populations respond”. Besides, the “bioactivity after autoclaving or feeding (inhibiting acetylation of histone H3 and H4)” value in data set [3] is listed as “still active”.
